# From patent US8809001B2, “High throughput assays for inhibitors and activators of PAQR receptors” (University of Florida Research Foundation, Inc., priority 2007, dated 2014)
# Values joined by “and” are separate entries in the source; they are usually repeats but may differ in a detail not shown here. Identical values can stand only once.
# Key:
# [1] = target: T1, mPRγ (Homo sapiens, UniProt Q9NXK6); experiment: FET3-lacZ reporter repression in yeast expressing mPRγ; type: cell-based
# T1 construct: Full length and truncated mPRγ and mPRα were expressed in wild type cells grown in 2% galactose from the pGREG536 vector; expressed in transfected cells; host or cells: Saccharomyces cerevisiae (BY4742 wild type; also gpa mutants), GAL1-driven plasmids
# T1 sequence (Q9NXK6 1-330): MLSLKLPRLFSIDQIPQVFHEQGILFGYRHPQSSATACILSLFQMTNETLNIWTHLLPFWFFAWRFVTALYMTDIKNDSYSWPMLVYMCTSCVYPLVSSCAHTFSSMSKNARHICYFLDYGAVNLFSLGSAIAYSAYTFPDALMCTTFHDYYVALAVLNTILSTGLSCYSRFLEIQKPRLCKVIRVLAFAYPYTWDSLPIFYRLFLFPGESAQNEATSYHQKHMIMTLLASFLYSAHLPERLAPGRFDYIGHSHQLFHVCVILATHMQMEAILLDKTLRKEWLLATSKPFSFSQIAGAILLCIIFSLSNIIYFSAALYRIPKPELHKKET
# Excerpt: (§1) Plasmids and primers. Human PAQRs were cloned into various vectors by PCR from commercially/publically available cDNAs. PAQRs were cloned into the pYES260 (Melcher, 2000), pRS316 (Liu et al., 1992) or pGREG536 (Jansen et al., 2005) expression vectors using gap repair. The pJK90 plasmid containing a Dual Topology Reporter (DTR)-tagged OST4 gene driven by the constitutive TPI1 promoter was kindly provided by Dr. Gunnar von Heijne (Stockholm University) (Kim et al., 2003). The OST4 open reading frame in pJK90 was replaced with the PAQR6 and mPRα open reading frames by gap repair. Primers for all cloning reactions are listed herein. Proteins expressed in pYES260 have an N-terminal 6×-histidine tag followed by a TEV protease cleavage site. Proteins expressed in pGREG536 have an N-terminal 7×-HA tag. Proteins expressed in the pRS316 vector are untagged. The pYES260, pRS316 and pGREG536 vectors allow for galactose-inducible expression via the GAL1 promoter. […] The FET3-lacZ plasmid was previously described (Kupchak et al., 2007). Plasmids derived from pADM4 carrying hyperactive alleles of Gpa1p (Gpa1p^Q323L) (Slessareva et al., 2006) and Gpa2p (Gpa2p^Q300L) (Harashima et al., 2002) driven by the ADH1 promoter were kindly provided by Dr. Henrik Dohlman (UNC Chapel Hill). A pRS316-based plasmid containing the STE2 gene under the control of the GAL1 promoter (Feng et al., 2000) was kindly provided by Dr. Nicholas G. Davis (Wayne State University).
# (§2) Assays and growth conditions. Strains were maintained using standard protocol and grown in synthetic defined (SD) media with the appropriate amino acids to match the auxotrophies of the individual strains. Low Iron Medium (LIM) contains EDTA to limit iron-bioavailability and its composition has been previously described (Kupchak et al., 2007). […] In brief, overnights of cells grown in SD-glucose media were re-inoculated into iron-deficient LIM to induce the expression of FET3. 2% galactose was used as a carbon source to induce full expression of PAQR genes driven by the GAL1 promoter, while 0.05% galactose/1.95% raffinose was used for reduced PAQR expression. All ligands were added to the growth medium upon re-inoculation into LIM. For experiments in which steroids were added as ligands, steroids were added from ethanol stocks and “untreated” controls are actually treated with an equal volume of ethanol to control for vehicle effects. Cells were allowed to grow to mid-log phase at which time the activity of the FET3 gene was monitored using a FET3-lacZ promoter-reporter construct. lacZ activities are presented as a percentage of activity seen in untreated cells expressing the appropriate empty expression vector control. For individual experiments, each data point has been done in triplicate and the error bars represent +/−1 standard deviation. All experiments were performed at least three times and a representative experiment is shown. EC50 values were obtained using the web-based BioDataFit software using sigmoidal curve-fitting. (web site changbioscience.com/stat/ec50.html)
# [2] = target: T2, mPRβ (Homo sapiens, UniProt Q8TEZ7); experiment: FET3-lacZ reporter repression in yeast expressing mPRβ; type: cell-based; settings: Table 3, iron deficient LIM, 0.05% galactose
# T2 construct: expressed in transfected cells; host or cells: Saccharomyces cerevisiae BY4742, GAL1-driven pYES260 plasmid
# T2 sequence (Q8TEZ7 1-354): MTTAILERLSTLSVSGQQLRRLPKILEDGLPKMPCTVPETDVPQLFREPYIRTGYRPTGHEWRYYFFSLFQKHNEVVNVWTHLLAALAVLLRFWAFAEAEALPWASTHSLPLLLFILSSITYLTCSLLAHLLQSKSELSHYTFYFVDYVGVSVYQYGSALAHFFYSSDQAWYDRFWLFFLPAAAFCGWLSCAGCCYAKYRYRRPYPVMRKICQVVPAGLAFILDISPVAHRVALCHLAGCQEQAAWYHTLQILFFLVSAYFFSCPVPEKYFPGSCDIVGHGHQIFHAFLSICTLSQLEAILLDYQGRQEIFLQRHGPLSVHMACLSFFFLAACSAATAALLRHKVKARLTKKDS
# Excerpt: as §1, with “Plasmids derived from pADM4 carrying hyperactive alleles of Gpa1p (Gpa1p^Q323L) (Slessareva et al., 2006) and Gpa2p (Gpa2p^Q300L) (Harashima et al., 2002) driven by the ADH1 promoter were kindly provided by Dr. Henrik Dohlman (UNC Chapel Hill). A pRS316-based plasmid containing the STE2 gene under the control of the GAL1 promoter (Feng et al., 2000) was kindly provided by Dr. Nicholas G. Davis (Wayne State University).” left out
# (§3) Assays and growth conditions. […] Cells were allowed to grow to mid-log phase at which time the activity of the FET3 gene was monitored using a FET3-lacZ promoter-reporter construct. lacZ activities are presented as a percentage of activity seen in untreated cells expressing the appropriate empty expression vector control. […]
# [3] = target: T3, PAQR6 (Homo sapiens, UniProt Q6TCH4); experiment: FET3-lacZ reporter repression in yeast expressing PAQR6; type: cell-based; settings: PAQR6, Table 3
# T3 construct: expressed in transfected cells; host or cells: Saccharomyces cerevisiae BY4742, GAL1-driven pYES260 plasmid
# T3 sequence (Q6TCH4 1-344): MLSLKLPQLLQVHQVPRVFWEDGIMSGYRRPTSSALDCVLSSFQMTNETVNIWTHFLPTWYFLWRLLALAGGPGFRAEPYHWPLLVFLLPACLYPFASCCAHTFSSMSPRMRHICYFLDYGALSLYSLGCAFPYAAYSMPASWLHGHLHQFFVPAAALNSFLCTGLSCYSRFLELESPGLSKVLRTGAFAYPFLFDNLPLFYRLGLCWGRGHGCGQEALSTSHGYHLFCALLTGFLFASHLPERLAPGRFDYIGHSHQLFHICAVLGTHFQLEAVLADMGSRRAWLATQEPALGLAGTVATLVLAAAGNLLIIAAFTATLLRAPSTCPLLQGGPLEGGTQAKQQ
# Excerpt: as §1, with “Plasmids derived from pADM4 carrying hyperactive alleles of Gpa1p (Gpa1p^Q323L) (Slessareva et al., 2006) and Gpa2p (Gpa2p^Q300L) (Harashima et al., 2002) driven by the ADH1 promoter were kindly provided by Dr. Henrik Dohlman (UNC Chapel Hill). A pRS316-based plasmid containing the STE2 gene under the control of the GAL1 promoter (Feng et al., 2000) was kindly provided by Dr. Nicholas G. Davis (Wayne State University).” left out
# as §3
# [4] = tested on: FET3; experiment: FET3-lacZ reporter in wild type yeast carrying empty expression plasmid; type: cell-based, Saccharomyces cerevisiae; settings: no human PAQR
# Excerpt: as §2
structure (smiles),measurement,setting,value
"CC(=O)[C@H]1CC[C@H]2[C@@H]3CCC4=CC(=O)CC[C@]4(C)[C@H]3CC[C@]12C [Progesterone, progesterone]",EC50,"[1]; mPRγ column of Table 4, ligand alone",1.1 nM
same,EC50,"[1]; mPRγ, Table 3, iron deficient LIM, 0.05% galactose",1.3 nM and 1 to 3 nM
same,EC50,"[1]; mPRγ, progesterone in the presence of 100 nM RU-486",15.5 nM
same,EC50,"[1]; mPRγ, progesterone in the presence of 10 μM testosterone",10.7 nM
same,EC50,[2],1.6 nM and 1 to 3 nM
same,EC50,[3],2.6 nM
same,effect of ligand on FET3 in cells carrying empty expression plasmid,[4],did not respond
